Assay results reported in ChEMBL document CHEMBL5303573, “Mapping human microbiome drug metabolism by gut bacteria and their genes” (Nature, 2019).

Experiments:
[1] = The drug is tested on Bifidobacterium ruminantium strain: fecal isolate for biotransformation. The drug concentrations were measured before and after a 12-h incubation by liquid-chromatography-coupled mass spectrometry (LC–MS); conditions: 2 µM
[2] = The drug is tested on Eggerthella lenta strain: ATCC25559 for biotransformation. The drug concentrations were measured before and after a 12-h incubation by liquid-chromatography-coupled mass spectrometry (LC–MS); conditions: 2 µM
[3] = The drug is tested on Alistipes indistinctus strain: DSM22520 for biotransformation. The drug concentrations were measured before and after a 12-h incubation by liquid-chromatography-coupled mass spectrometry (LC–MS); conditions: 2 µM
[4] = The drug is tested on Bacteroides dorei strain: DSM17855 for biotransformation. The drug concentrations were measured before and after a 12-h incubation by liquid-chromatography-coupled mass spectrometry (LC–MS); conditions: phocaeicola dorei, 2 µM
[5] = The drug is tested on Bacteroides pectinophilus strain: ATCC43243 for biotransformation. The drug concentrations were measured before and after a 12-h incubation by liquid-chromatography-coupled mass spectrometry (LC–MS); conditions: 2 µM
[6] = The drug is tested on Bacteroides uniformis strain: ATCC8492 for biotransformation. The drug concentrations were measured before and after a 12-h incubation by liquid-chromatography-coupled mass spectrometry (LC–MS); conditions: 2 µM
[7] = The drug is tested on Bacteroides vulgatus strain: ATCC8482 for biotransformation. The drug concentrations were measured before and after a 12-h incubation by liquid-chromatography-coupled mass spectrometry (LC–MS); conditions: phocaeicola vulgatus, 2 µM
[8] = The drug is tested on Clostridium asparagiforme strain: DSM15981 for biotransformation. The drug concentrations were measured before and after a 12-h incubation by liquid-chromatography-coupled mass spectrometry (LC–MS); type: ADME; parameters: dose 2 uM, timepoint 0 vs 12 hours; conditions: enterocloster asparagiformis, 2 µM
[9] = The drug is tested on Clostridium symbiosum strain: ATCC14940 for biotransformation. The drug concentrations were measured before and after a 12-h incubation by liquid-chromatography-coupled mass spectrometry (LC–MS); conditions: 2 µM
[10] = The drug is tested on Ruminococcus lactaris strain: ATCC29176 for biotransformation. The drug concentrations were measured before and after a 12-h incubation by liquid-chromatography-coupled mass spectrometry (LC–MS); conditions: 2 µM
[11] = bacteroides eggerthii, 12 h, 2 µM
Description: The drug is tested on Bacteroides eggerthii strain: DSM20697 for biotransformation. The drug concentrations were measured before and after a 12-h incubation by liquid-chromatography-coupled mass spectrometry (LC–MS)

[12] = bacteroides fragilis, 12 h, 2 µM
Description: The drug is tested on Bacteroides fragilis strain: 3397 (T10) for biotransformation. The drug concentrations were measured before and after a 12-h incubation by liquid-chromatography-coupled mass spectrometry (LC–MS)

[13] = bacteroides fragilis, 12 h, 2 µM; remark: listed apart in the source
Description: The drug is tested on Bacteroides fragilis strain: DS-208 for biotransformation. The drug concentrations were measured before and after a 12-h incubation by liquid-chromatography-coupled mass spectrometry (LC–MS)

[14] = bacteroides intestinalis, 12 h, 2 µM
Description: The drug is tested on Bacteroides intestinalis strain: DSM17393 for biotransformation. The drug concentrations were measured before and after a 12-h incubation by liquid-chromatography-coupled mass spectrometry (LC–MS)

[15] = bacteroides thetaiotaomicron, 12 h, 2 µM
Description: The drug is tested on Bacteroides thetaiotaomicron strain: VPI-5482 for biotransformation. The drug concentrations were measured before and after a 12-h incubation by liquid-chromatography-coupled mass spectrometry (LC–MS)

[16] = bacteroides thetaiotaomicron, 12 h, 2 µM; remark: listed apart in the source
Description: The drug is tested on Bacteroides thetaiotaomicron strain: 7330 for biotransformation. The drug concentrations were measured before and after a 12-h incubation by liquid-chromatography-coupled mass spectrometry (LC–MS)

[17] = segatella copri, 12 h, 2 µM
Description: The drug is tested on Prevotella copri strain: DSM18205 for biotransformation. The drug concentrations were measured before and after a 12-h incubation by liquid-chromatography-coupled mass spectrometry (LC–MS)

[18] = anaerostipes sp., 12 h, 2 µM
Description: The drug is tested on Anaerostipes sp. strain: fecal isolate for biotransformation. The drug concentrations were measured before and after a 12-h incubation by liquid-chromatography-coupled mass spectrometry (LC–MS)

[19] = roseburia intestinalis, 12 h, 2 µM
Description: The drug is tested on Roseburia intestinalis strain: L1-82 for biotransformation. The drug concentrations were measured before and after a 12-h incubation by liquid-chromatography-coupled mass spectrometry (LC–MS)

[20] = akkermansia muciniphila, 12 h, 2 µM
Description: The drug is tested on Akkermansia muciniphila strain: ATCC BAA-835 for biotransformation. The drug concentrations were measured before and after a 12-h incubation by liquid-chromatography-coupled mass spectrometry (LC–MS)

SMILES	Bacterial Biotransformation [1]	Bacterial Biotransformation [2]	Bacterial Biotransformation [3]	Bacterial Biotransformation [4]	Bacterial Biotransformation [5]	Bacterial Biotransformation [6]	Bacterial Biotransformation [7]	Bacterial Biotransformation [8]	Bacterial Biotransformation [9]	Bacterial Biotransformation [10]	Bacterial Biotransformation [11]	Bacterial Biotransformation [12]	Bacterial Biotransformation [13]	Bacterial Biotransformation [14]	Bacterial Biotransformation [15]	Bacterial Biotransformation [16]	Bacterial Biotransformation [17]	Bacterial Biotransformation [18]	Bacterial Biotransformation [19]	Bacterial Biotransformation [20]
COc1ccc2c(c1OC)C(=O)O[C@@H]2[C@H]1c2c(cc3c(c2OC)OCO3)CCN1C [NOSCAPINE]	Compound metabolized	Compound NOT metabolized	Compound metabolized	Compound metabolized	Compound metabolized	Compound metabolized	Compound metabolized	Compound metabolized	Compound metabolized	Compound metabolized	Compound NOT metabolized	Compound NOT metabolized	Compound metabolized	Compound metabolized	Compound metabolized	Compound metabolized	Compound metabolized	Compound metabolized	Compound metabolized	Compound metabolized
Cc1nc2n(c(=O)c1CCN1CCC(c3noc4cc(F)ccc34)CC1)CCCC2O (stereo not given) [PALIPERIDONE]	Compound metabolized	Compound NOT metabolized	Compound metabolized	Compound metabolized	Compound NOT metabolized	Compound metabolized	Compound metabolized	Compound metabolized	Compound metabolized	Compound metabolized	Compound metabolized	Compound metabolized	Compound metabolized	Compound metabolized	Compound NOT metabolized	Compound NOT metabolized	Compound metabolized	Compound metabolized	Compound metabolized	Compound metabolized
CC(C(=O)O)c1ccc2c(c1)Cc1cccnc1O2 (stereo not given) [PRANOPROFEN]	Compound metabolized	Compound NOT metabolized	Compound metabolized	Compound metabolized	Compound metabolized	Compound metabolized	Compound metabolized	Compound NOT metabolized	Compound metabolized	Compound NOT metabolized	Compound metabolized	Compound metabolized	Compound metabolized	Compound metabolized	Compound metabolized	Compound metabolized	Compound metabolized	Compound NOT metabolized	Compound NOT metabolized	Compound metabolized
CC(=O)OCC(=O)NCCCOc1cccc(CN2CCCCC2)c1 [ROXATIDINE ACETATE]	Compound metabolized	Compound metabolized	Compound metabolized	Compound metabolized	Compound metabolized	Compound metabolized	Compound metabolized	Compound metabolized	Compound NOT metabolized	Compound metabolized	Compound metabolized	Compound metabolized	Compound metabolized	Compound metabolized	Compound metabolized	Compound metabolized	Compound metabolized	Compound metabolized	Compound metabolized	Compound NOT metabolized

Other lines, results leading:

Bacterial Biotransformation [1]	Bacterial Biotransformation [2]	Bacterial Biotransformation [3]	Bacterial Biotransformation [4]	Bacterial Biotransformation [5]	Bacterial Biotransformation [6]	Bacterial Biotransformation [7]	Bacterial Biotransformation [8]	Bacterial Biotransformation [9]	Bacterial Biotransformation [10]	Bacterial Biotransformation [11]	Bacterial Biotransformation [12]	Bacterial Biotransformation [13]	Bacterial Biotransformation [14]	Bacterial Biotransformation [15]	Bacterial Biotransformation [16]	Bacterial Biotransformation [17]	Bacterial Biotransformation [18]	Bacterial Biotransformation [19]	Bacterial Biotransformation [20]	SMILES
Compound metabolized	Compound metabolized	Compound metabolized	Compound metabolized	Compound metabolized	Compound metabolized	Compound metabolized	Compound metabolized	Compound metabolized	Compound metabolized	Compound metabolized	Compound metabolized	Compound metabolized	Compound metabolized	Compound metabolized	Compound metabolized	Compound metabolized	Compound metabolized	Compound metabolized	Compound metabolized	COc1ccc2[nH]c([S+]([O-])Cc3ncc(C)c(OC)c3C)nc2c1 (stereo not given) [OMEPRAZOLE]
Compound metabolized	Compound metabolized	Compound metabolized	Compound metabolized	Compound metabolized	Compound metabolized	Compound metabolized	Compound metabolized	Compound metabolized	Compound metabolized	Compound metabolized	Compound metabolized	Compound metabolized	Compound metabolized	Compound metabolized	Compound metabolized	Compound metabolized	Compound metabolized	Compound metabolized	Compound metabolized	COc1ccnc(C[S+]([O-])c2nc3ccc(OC(F)F)cc3[nH]2)c1OC (stereo not given) [PANTOPRAZOLE]
